Remaining activity data for 4 molecules are collected here from PMC7827406, “Structure–Activity Relationship (SAR) Study of Spautin-1 to Entail the Discovery of Novel NEK4 Inhibitors” (International Journal of Molecular Sciences, 2021).

Read-outs that look alike come from different tables or passages of the source.

Holding throughout (assay): biochemical
What all share (design): Eurofins KinaseProfiler full panel at Km ATP, residual kinase activity (%) relative to DMSO

In one assay the target is T1, SAPK4(h) (Homo sapiens, UniProt O15264).
T1 construct: gene MAPK13
T1 sequence (O15264 1-365): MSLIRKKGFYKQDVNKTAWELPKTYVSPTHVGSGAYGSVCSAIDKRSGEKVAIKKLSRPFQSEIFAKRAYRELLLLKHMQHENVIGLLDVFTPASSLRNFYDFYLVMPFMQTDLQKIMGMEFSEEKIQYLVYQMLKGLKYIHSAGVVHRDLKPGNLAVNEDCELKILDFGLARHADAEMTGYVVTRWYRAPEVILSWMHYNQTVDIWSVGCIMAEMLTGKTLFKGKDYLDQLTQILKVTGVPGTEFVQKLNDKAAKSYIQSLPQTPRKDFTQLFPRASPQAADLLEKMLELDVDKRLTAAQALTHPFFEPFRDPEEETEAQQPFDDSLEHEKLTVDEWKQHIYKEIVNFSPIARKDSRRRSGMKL
An outline of the steps:
(§1)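 Two 10 µM single-concentration screens were run: a competition-binding screen, in which DNA-tagged kinase bound to immobilized ligands was quantified by qPCR, and a radiometric activity panel at Km ATP. Each is expressed as residual kinase activity (%).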

In a further assay the target is T2, PI3KC2g(h) (Homo sapiens, UniProt O75747).
T2 construct: gene PIK3C2G
T2 sequence (O75747 1-1486): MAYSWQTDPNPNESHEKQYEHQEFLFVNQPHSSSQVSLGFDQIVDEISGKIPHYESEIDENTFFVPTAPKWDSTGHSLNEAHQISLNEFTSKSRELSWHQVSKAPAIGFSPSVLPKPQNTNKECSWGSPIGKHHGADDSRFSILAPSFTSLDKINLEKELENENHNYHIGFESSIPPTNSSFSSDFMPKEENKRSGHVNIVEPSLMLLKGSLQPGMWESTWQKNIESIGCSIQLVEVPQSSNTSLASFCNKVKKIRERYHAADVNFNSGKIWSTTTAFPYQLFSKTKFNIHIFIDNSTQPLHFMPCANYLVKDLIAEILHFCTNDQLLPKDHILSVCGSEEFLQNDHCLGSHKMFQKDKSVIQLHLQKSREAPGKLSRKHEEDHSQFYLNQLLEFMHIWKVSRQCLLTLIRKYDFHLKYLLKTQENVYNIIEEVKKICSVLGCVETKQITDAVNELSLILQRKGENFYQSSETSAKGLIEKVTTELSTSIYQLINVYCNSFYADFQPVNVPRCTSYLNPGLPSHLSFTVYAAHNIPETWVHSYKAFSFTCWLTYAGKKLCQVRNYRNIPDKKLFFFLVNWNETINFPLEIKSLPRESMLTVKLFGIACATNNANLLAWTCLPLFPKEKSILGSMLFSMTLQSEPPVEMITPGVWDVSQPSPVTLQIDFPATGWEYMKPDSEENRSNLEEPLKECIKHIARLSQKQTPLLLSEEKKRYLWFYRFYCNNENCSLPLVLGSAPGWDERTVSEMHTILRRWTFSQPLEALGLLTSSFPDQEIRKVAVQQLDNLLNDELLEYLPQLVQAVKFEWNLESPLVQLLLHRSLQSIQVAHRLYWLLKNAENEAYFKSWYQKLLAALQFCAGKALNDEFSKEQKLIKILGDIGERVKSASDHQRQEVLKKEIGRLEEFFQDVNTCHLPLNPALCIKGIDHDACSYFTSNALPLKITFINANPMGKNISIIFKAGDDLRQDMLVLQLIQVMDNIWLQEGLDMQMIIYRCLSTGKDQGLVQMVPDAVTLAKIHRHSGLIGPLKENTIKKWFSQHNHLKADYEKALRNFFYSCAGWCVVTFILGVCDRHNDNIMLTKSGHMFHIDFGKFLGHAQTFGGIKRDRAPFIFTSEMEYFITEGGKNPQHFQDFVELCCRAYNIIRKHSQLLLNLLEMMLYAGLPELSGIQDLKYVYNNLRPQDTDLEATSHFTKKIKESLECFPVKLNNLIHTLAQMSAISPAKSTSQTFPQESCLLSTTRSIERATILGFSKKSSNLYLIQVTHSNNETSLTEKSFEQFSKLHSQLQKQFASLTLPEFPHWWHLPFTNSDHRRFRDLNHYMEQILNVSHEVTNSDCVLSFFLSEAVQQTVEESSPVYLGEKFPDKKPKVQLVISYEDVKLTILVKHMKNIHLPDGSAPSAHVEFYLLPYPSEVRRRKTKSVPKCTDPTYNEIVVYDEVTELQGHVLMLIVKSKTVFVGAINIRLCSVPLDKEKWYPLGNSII
An outline of the steps: as §1

In the next assay the target is CDK12/cyclinK(h) (Homo sapiens, UniProt Q9NYV4). An outline of the steps: as §1
CDK12/cyclinK(h), sequence (Q9NYV4 whole entry): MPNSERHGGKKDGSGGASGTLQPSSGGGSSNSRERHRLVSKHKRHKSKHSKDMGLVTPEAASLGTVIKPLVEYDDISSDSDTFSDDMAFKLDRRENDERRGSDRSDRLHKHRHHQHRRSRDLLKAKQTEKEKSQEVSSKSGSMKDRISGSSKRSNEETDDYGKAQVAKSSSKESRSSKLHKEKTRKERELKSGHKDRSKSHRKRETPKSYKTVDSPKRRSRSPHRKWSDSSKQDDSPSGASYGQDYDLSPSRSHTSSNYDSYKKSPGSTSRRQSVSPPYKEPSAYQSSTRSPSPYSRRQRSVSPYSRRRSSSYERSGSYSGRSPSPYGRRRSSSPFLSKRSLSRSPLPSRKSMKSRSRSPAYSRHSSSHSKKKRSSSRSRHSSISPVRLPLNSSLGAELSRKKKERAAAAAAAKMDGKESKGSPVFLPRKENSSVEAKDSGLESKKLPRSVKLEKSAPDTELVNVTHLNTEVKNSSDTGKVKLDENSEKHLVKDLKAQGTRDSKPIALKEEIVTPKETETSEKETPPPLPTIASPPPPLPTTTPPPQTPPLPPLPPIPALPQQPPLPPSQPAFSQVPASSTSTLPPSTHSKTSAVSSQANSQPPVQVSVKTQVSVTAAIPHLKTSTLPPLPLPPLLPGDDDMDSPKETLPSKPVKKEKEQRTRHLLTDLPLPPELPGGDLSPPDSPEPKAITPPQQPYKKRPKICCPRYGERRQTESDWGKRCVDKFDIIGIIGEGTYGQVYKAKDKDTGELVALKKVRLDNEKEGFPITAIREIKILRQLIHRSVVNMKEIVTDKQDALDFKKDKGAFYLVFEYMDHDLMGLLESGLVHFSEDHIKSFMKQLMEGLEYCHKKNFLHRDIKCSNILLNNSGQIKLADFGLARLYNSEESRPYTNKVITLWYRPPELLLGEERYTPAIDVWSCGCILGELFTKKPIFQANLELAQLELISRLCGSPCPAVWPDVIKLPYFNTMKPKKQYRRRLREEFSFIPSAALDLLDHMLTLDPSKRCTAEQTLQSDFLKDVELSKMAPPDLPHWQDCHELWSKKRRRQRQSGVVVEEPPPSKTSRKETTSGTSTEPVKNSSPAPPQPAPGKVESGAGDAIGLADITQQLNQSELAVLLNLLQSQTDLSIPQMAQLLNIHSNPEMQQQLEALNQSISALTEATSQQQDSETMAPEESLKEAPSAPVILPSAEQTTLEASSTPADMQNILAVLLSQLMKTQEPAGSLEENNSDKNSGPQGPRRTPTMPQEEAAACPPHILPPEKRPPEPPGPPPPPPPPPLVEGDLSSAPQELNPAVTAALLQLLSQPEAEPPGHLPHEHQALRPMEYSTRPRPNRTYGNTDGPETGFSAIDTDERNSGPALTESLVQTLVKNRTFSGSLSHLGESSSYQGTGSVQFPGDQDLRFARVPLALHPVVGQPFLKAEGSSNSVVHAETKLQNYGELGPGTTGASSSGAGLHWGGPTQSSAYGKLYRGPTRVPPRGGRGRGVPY
CDK12/cyclinK(h), sequence (O75909 whole entry partner): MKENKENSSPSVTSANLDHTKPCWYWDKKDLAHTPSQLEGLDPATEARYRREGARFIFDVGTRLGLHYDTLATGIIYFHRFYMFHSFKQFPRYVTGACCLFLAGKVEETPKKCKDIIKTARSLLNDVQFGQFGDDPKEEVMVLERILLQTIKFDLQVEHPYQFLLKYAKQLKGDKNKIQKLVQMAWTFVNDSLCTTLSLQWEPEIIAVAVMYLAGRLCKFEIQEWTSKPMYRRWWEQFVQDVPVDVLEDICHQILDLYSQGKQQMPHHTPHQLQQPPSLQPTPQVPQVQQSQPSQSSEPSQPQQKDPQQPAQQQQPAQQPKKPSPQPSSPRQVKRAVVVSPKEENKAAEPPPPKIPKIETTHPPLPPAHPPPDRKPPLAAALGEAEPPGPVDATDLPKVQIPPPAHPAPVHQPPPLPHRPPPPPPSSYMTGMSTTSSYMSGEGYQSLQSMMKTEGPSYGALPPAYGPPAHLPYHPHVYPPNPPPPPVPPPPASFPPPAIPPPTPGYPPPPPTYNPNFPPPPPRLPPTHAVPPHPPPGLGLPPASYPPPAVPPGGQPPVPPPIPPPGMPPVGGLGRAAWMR
In the next assay the target is CDKL3(h) (Homo sapiens, UniProt Q8IVW4). An outline of the steps:
as §1

The next assay has as its target STK32B(h) (Homo sapiens, UniProt Q9NY57). An outline of the steps: as §1
The target of another assay is NEK6(h) (Homo sapiens, UniProt Q9HC98). An outline of the steps: as §1
NEK6(h), sequence (Q9HC98 whole entry): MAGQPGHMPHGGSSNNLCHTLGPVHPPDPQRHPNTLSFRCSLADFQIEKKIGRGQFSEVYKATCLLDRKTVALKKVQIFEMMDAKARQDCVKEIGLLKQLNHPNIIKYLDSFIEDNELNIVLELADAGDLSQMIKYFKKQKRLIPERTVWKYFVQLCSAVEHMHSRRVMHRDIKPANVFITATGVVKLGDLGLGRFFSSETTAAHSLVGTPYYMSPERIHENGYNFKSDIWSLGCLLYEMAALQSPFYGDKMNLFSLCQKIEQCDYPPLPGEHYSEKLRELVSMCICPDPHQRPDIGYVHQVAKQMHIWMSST
The target in a further assay is SRMS(h) (Homo sapiens, UniProt Q9H3Y6). An outline of the steps: as §1
SRMS(h), sequence (Q9H3Y6 whole entry): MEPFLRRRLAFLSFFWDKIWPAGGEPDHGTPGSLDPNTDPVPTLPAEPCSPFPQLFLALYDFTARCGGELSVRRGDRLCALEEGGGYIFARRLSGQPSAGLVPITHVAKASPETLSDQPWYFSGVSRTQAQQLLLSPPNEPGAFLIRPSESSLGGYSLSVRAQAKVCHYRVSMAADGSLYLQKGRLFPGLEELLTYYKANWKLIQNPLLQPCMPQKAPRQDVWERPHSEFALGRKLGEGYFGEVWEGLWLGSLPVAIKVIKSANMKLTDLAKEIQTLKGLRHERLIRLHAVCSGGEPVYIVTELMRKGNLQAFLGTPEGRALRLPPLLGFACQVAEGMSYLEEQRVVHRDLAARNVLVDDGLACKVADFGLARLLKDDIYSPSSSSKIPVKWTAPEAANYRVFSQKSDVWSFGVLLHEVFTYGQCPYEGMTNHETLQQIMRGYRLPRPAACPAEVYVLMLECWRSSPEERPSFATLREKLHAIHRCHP
[1] abbreviates: read-out: Residual activity (%) Spautin-1 5aa.
[2] abbreviates: read-out: Residual activity (%) 5as.
Where [3] appears, read: read-out: Residual activity (%) 5at.
Setting [4] is: read-out: Residual activity (%) 5ay.

CDKL3(h), sequence (Q8IVW4 whole entry): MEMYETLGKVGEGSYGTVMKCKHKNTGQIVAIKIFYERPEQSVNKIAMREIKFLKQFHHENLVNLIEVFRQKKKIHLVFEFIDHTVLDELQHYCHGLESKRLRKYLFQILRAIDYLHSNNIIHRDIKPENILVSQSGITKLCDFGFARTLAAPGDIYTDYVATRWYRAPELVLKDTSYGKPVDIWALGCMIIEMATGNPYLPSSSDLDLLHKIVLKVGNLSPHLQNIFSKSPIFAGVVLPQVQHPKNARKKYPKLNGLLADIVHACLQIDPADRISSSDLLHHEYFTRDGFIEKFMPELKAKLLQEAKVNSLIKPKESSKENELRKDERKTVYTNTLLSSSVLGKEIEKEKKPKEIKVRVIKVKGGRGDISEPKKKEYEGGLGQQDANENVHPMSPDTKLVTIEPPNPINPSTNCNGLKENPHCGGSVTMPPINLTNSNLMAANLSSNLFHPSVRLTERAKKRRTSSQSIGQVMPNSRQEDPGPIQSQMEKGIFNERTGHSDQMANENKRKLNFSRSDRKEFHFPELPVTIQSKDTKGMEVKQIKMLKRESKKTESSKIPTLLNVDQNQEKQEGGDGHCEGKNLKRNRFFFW
STK32B(h), sequence (Q9NY57 whole entry): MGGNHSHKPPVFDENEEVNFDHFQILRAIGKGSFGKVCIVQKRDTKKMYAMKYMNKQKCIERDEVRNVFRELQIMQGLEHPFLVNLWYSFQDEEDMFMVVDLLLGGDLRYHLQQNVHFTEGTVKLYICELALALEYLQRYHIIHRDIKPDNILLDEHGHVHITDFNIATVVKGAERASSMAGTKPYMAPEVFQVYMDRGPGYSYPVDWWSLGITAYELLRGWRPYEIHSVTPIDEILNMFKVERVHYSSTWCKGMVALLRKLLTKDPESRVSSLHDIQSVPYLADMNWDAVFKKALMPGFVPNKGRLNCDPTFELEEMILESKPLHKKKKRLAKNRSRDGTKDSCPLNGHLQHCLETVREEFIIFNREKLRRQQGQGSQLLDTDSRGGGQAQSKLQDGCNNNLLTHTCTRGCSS

As to `Fc1ccc(CNc2ncnc3ccc(F)cc23)cc1` [5aa, 6-Fluoro-N-(4-fluorobenzyl)-4-Quinazolinamine], the remaining activity at 10 µM at SAPK4(h) (setting [1]) came to 97%; on PI3KC2g(h) (setting [1]), 70%; at CDK12/cyclinK(h) (setting [1]), 84%; on CDKL3(h) (setting [1]) it was 77%; at STK32B(h) (setting [1]), 95%; on NEK6(h) (setting [1]), 103%. The remaining activity at 10 µM at SRMS(h) (setting [1]) was determined as 86%.

For `Fc1ccc(CCNc2ncnc3ccc(F)cc23)cc1` [5as, 6-Fluoro-N-[2-(4-Fluorophenyl)Ethyl]-4-Quinazolinamine], the remaining activity at 10 µM at SAPK4(h) (setting [2]) turned out to be 105%; on PI3KC2g(h) (setting [2]) it was 57%; on CDK12/cyclinK(h) (setting [2]) it was 72%; at CDKL3(h) (setting [2]), 65%; at STK32B(h) (setting [2]), 92%; at NEK6(h) (setting [2]) it was 94%. Further, the remaining activity at 10 µM on SRMS(h) (setting [2]) stood at 84%.

On to `Fc1ccc2ncnc(NCCc3ccc(Cl)cc3)c2c1` [5at, N-[2-(4-Chlorophenyl)Ethyl]-6-Fluoro-4-Quinazolinamine], for which the remaining activity at 10 µM amounted to 92% on SAPK4(h) (setting [3]); 34% on PI3KC2g(h) (setting [3]); 93% at CDK12/cyclinK(h) (setting [3]); 71% on CDKL3(h) (setting [3]); 97% at STK32B(h) (setting [3]); 79% on NEK6(h) (setting [3]). Further, the remaining activity at 10 µM on SRMS(h) (setting [3]) worked out at 71%.

Turning to `COc1ccc2ncnc(Nc3cccc(F)c3)c2c1` [5ay, N-(3-Fluorophenyl)-6-Methoxy-4-Quinazolinamine], the remaining activity at 10 µM on SAPK4(h) (setting [4]) was determined as 105%; at PI3KC2g(h) (setting [4]), 40%; at CDK12/cyclinK(h) (setting [4]) it was 69%; at CDKL3(h) (setting [4]) it was 29%; on STK32B(h) (setting [4]), 93%; at NEK6(h) (setting [4]), 91%. Further, the remaining activity at 10 µM on SRMS(h) (setting [4]) was determined as 78%.
